Results published in US6548540B2, “Method of treating cancer using dithiocarbamate derivatives” (Charlotte-Mecklenburg Hospital Authority, priority 1998, dated 2003).

Legend:
Format in all cases: cell-based, human
cyclin A = experiment: Immunoblot for cyclin A in M1619 cells; details: 24 hours
Method: Cells were lysed and proteins were isolated and quantitated by immunoassay as previously detailed using 2 μg/ml of primary rabbit polyclonal antibodies against human bcl-2, p53, p21^WAF1/CiP1, cyclin A and cyclin B1, and peroxidase-labeled donkey polyclonal anti-rabbit IgG. Cells were placed on ice, washed twice with cold DPBS, scraped into 0.5 ml boiling buffer (10% [vol/vol] glycerol and 2% [wt/vol] sodium dodecyl sulfate [SDS] in 83 mM Tris, pH 6.8) and sheared by four passages through a pipette. Aliquots were removed for protein determination, using the BCA protein assay (Pierce). After 10% β-mercaptoethanol and 0.05% bromophenol blue were added, lysates were boiled for 5 min and stored at -80° C. until immunoblotting was performed. Proteins in defrosted samples were separated by SDS-polyacrylamide gel electrophoresis on 12% polyacrylamide gels (15 μg protein/lane) and electrotransferred to 0.45 μm Hybond ECL nitrocellulose membranes (Amersham Life Sciences) using the wet transblot method in transfer buffer (0.025 M Tris, 0.192 M glycine, 2.6 mM SDS, and 20%[vol/vol] methanol; pH 8.8) at 100 volts for 1 hour. Blots were blocked overnight at 4° C. with blocking buffer (PBS with 0.1% Tween 20) containing 5% fat-free milk powder (Carnation, Glendale, Calif.). After rinsing 5 times for 5 minutes each in PBS containing 0.1% Tween 20, blots were incubated for 1 hour at room temperature with 2.0 μg/ml of primary antibody. After rinsing again as above, blots were incubated for 1 hr at room temperature with horseradish peroxidase (HRP)-conjugated secondary antibody diluted 1:5,000 in blocking buffer. Immunoblots were rinsed again as above and detected via an enhanced chemiluminescence method (ECL Western blotting detection system, Amersham Life Science, Buckinghamshire, England). Autoradiographic film (X-OMAT AR, Eastman Kodak, Rochester, N.Y.) was exposed to immunoblots for 10, 30, or 60 seconds to obtain satisfactory images. Since disulfiram and copper disrupt transcription factor DNA binding to CRE, their effect on expression of cyclin A was studied. […]

p53 = experiment: Immunoblot for p53; details: cell lines studied; data not shown
Method: Cells were lysed and proteins were isolated and quantitated by immunoassay as previously detailed using 2 μg/ml of primary rabbit polyclonal antibodies against human bcl-2, p53, p21^WAF1/CiP1, cyclin A and cyclin B1, and peroxidase-labeled donkey polyclonal anti-rabbit IgG. Cells were placed on ice, washed twice with cold DPBS, scraped into 0.5 ml boiling buffer (10% [vol/vol] glycerol and 2% [wt/vol] sodium dodecyl sulfate [SDS] in 83 mM Tris, pH 6.8) and sheared by four passages through a pipette. Aliquots were removed for protein determination, using the BCA protein assay (Pierce). After 10% β-mercaptoethanol and 0.05% bromophenol blue were added, lysates were boiled for 5 min and stored at −80° C. until immunoblotting was performed. Proteins in defrosted samples were separated by SDS-polyacrylamide gel electrophoresis on 12% polyacrylamide gels (15 μg protein/lane) and electrotransferred to 0.45 μm Hybond ECL nitrocellulose membranes (Amersham Life Sciences) using the wet transblot method in transfer buffer (0.025 M Tris, 0.192 M glycine, 2.6 mM SDS, and 20%[vol/vol] methanol; pH 8.8) at 100 volts for 1 hour. […] Immunoblots were rinsed again as above and detected via an enhanced chemiluminescence method (ECL Western blotting detection system, Amersham Life Science, Buckinghamshire, England). […]

tumor cell lines = experiment: Proliferation of tumor cell lines with redox, NO synthase or cyclooxygenase agents (cell line not given)
Method: Potential redox effects of disulfiram were studied in three sets of experiments. The importance of cellular glutathione (GSH) in mediating or modulating thiocarbamate toxicity was studied by measuring levels of intracellular GSH after treatment with disulfiram. […] Also, to assess whether a nonspecific antioxidant effect of disulfiram or PDTC might account for cellular growth inhibition, we studied the effect of the potent lipophilic antioxidant probucol (1.0 to 1,000 μM) on proliferation of malignant cell lines. […] To explore the role of cyclooxygenase inhibition on tumor cell growth, cells were cultured with or without disulfiram in the presence or absence of the cyclooxygenase-1 (COX1) and cyclooxygenase-2 (COX2) inhibitors indomethacin (5μg/ml) or sodium salicylate (1 mM). To probe whether disulfiram might be inducing growth retardation by interruption or stimulation of NO production, proliferation was studied with and without disulfiram in the presence and absence of the nitric oxide […] inhibitor Nω-nitro-L-arginine added to growth medium (100 μM). […] J. Respir. Cell Mol. Biol. 7:574-581 (1992); […], et al. R., supra; S. S. Brar, et al., “Requirement for reactive oxygen species in serum-induced and platelet-derived growth factor-induced growth of airway smooth muscle,” J. Biol. Chem. 274:20017-20026 (1999)). This assay empirically distinguishes between dead and living cells. For proliferation studies, cells were seeded into 24-well uncoated plastic plates (Costar) at 50,000 cells per well and cultured with respective media and mitogens. […] MTT-containing medium was removed, 0.5 ml dimethylsulfoxide (DMSO) was added to each well, and the absorbance of the solubilized purple formazan dye was measured at 540 nm. A total of 4-6 wells were studied at each treatment condition.

[1] = test system: H82 small cell lung cancer cells; experiment: Trypan blue cytotoxicity, H82; details: 0.625 μM disulfiram; 36 hours
Method: To assess for cytotoxicity, cells were plated at a density of 50,000 per well on 24 well plates and grown for 24 hours. Disulfiram was then added. After an additional 36 hours, medium was removed and replaced with DPBS containing 0.1% trypan blue. Cell death was assessed by counting the average number of trypan blue positive cells per 10×field in 5 random fields for 4 separate wells.

CCN(CC)C(=S)SSC(=S)N(CC)CC [Disulfiram, tetraethylthiuram disulfide]
cyclin A expression (cyclin A; disulfiram 5 μM alone): little effect | reduction of cyclin A expression (cyclin A; disulfiram 5 μM plus CuSO4 1.6 μM): over two-thirds | expression of p53 (p53): no consistent effect | inhibition of growth (tumor cell lines; disulfiram alone): 36.8±4.0% | inhibition of growth (tumor cell lines; disulfiram plus LNAME): 26.7±3.1% | trypan blue positive cells [1]: 93±12 trypan blue positive cells per well
